# Assay results taken from ChEMBL document CHEMBL4251622, “Design, synthesis, and biological evaluation of polo-like kinase 1/eukaryotic elongation factor 2 kinase (PLK1/EEF2K) dual inhibitors for regulating breast cancer cells apoptosis and autophagy” (Eur J Med Chem, 2018).
# Calls of active or inactive are those of the source. No cut-off for these calls is given here.
# How the values were obtained:
# [1] = biological target: Serine/threonine-protein kinase B-raf (Homo sapiens) (UniProt P15056); assay: Inhibition of wild-type human partial length BRAF (S429 to E741 residues) expressed in mammalian expression system assessed as residual activity at 1 uM by Kinomescan method relative to control
# Chain of Serine/threonine-protein kinase B-raf (Homo sapiens) (P15056 whole entry, the tested form may be a part): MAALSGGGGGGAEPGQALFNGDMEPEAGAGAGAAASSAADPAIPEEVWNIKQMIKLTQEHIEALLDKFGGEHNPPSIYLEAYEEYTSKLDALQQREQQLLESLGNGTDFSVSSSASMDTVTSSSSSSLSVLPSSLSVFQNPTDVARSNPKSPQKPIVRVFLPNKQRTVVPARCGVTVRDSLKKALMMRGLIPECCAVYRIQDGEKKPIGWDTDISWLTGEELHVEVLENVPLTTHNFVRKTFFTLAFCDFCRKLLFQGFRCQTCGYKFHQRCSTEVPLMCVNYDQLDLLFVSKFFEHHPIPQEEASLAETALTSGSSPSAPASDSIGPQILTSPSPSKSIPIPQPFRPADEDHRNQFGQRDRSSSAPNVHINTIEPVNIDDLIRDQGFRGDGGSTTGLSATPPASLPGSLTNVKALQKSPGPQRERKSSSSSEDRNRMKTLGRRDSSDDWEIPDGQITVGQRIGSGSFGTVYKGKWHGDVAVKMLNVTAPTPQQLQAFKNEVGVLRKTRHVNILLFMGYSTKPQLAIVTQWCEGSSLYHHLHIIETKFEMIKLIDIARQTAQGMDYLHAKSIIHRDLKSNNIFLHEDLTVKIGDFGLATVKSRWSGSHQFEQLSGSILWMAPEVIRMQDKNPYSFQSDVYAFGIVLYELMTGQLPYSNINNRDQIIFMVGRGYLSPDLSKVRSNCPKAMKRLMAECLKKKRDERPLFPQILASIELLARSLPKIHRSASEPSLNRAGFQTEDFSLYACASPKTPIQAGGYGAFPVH
# [2] = biological target: Receptor tyrosine-protein kinase erbB-4 (Homo sapiens) (UniProt Q15303); assay: Inhibition of wild-type human partial length ERBB4 (L690 to K994 residues) expressed in bacterial expression system assessed as residual activity at 1 uM by Kinomescan method relative to control
# [3] = biological target: High affinity nerve growth factor receptor (Homo sapiens) (UniProt P04629); assay: Inhibition of wild-type human partial length TRKA (G475 to G790 residues) expressed in mammalian expression system assessed as residual activity at 1 uM by Kinomescan method relative to control
# MDA-MB-231 = assay: Cytotoxicity against human MDA-MB-231 cells after 24 hrs by MTT assay; type: functional, cell-based
# [4] = biological target: T1, Serine/threonine-protein kinase PLK1 (Homo sapiens, UniProt P53350); assay: Inhibition of PLK1 autophosphorylation in human BT-483 cells at 5 to 10 uM by Western blot analysis; type: cell-based
# T1 sequence (P53350 whole entry, the tested form may be a part): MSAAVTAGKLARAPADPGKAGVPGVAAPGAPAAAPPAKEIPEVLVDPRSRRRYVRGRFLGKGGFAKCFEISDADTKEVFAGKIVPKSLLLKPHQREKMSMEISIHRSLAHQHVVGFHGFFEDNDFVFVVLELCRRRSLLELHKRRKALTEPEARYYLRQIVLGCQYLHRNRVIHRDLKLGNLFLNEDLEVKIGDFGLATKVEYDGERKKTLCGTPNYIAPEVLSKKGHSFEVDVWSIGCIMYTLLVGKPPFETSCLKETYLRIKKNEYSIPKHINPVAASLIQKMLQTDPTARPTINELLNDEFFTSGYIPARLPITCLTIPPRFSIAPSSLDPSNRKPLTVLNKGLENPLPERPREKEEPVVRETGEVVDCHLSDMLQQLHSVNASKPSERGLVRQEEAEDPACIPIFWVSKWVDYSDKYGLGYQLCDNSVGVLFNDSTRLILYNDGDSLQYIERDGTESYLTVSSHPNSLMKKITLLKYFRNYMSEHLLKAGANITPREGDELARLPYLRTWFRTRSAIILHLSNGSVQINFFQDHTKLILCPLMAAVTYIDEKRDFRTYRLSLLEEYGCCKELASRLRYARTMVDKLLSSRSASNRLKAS
# [5] = biological target: Tyrosine-protein kinase receptor UFO (Homo sapiens) (UniProt P30530); assay: Inhibition of wild-type human partial length AXL (R497 to Y821 residues) expressed in bacterial expression system assessed as residual activity at 1 uM by Kinomescan method relative to control
# [6] = biological target: Proto-oncogene tyrosine-protein kinase Src (Homo sapiens) (UniProt P12931); assay: Inhibition of wild-type human partial length SRC (L240 to L536 residues) expressed in bacterial expression system assessed as residual activity at 1 uM by Kinomescan method relative to control
# [7] = biological target: Serine/threonine-protein kinase Chk1 (Homo sapiens) (UniProt O14757); assay: Inhibition of wild-type human partial length CHEK1 (M1 to G289 residues) expressed in bacterial expression system assessed as residual activity at 1 uM by Kinomescan method relative to control
# [8] = biological target: Mitogen-activated protein kinase kinase kinase 7 (Homo sapiens) (UniProt O43318); assay: Inhibition of wild-type human partial length TAK1 (M1 to Q303 residues) expressed in mammalian expression system assessed as residual activity at 1 uM by Kinomescan method relative to control
# Chain of Mitogen-activated protein kinase kinase kinase 7 (Homo sapiens) (O43318 whole entry, the tested form may be a part): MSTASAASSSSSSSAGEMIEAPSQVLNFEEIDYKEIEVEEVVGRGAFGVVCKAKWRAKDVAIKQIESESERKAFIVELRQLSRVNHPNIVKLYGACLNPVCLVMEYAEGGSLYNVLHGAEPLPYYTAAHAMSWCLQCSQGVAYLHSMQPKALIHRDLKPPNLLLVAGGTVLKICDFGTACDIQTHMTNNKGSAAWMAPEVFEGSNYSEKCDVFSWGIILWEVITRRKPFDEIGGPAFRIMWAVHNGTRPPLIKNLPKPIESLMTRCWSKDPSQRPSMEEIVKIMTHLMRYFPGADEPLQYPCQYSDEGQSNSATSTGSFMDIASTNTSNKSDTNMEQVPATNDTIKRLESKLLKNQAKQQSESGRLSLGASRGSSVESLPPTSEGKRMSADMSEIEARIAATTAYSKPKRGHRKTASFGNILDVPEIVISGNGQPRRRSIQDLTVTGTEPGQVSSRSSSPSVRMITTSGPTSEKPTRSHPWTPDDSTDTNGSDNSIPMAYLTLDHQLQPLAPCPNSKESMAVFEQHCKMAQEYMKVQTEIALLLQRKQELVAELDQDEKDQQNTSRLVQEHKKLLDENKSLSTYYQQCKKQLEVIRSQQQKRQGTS
# [9] = biological target: Serine/threonine-protein kinase ULK1 (Homo sapiens) (UniProt O75385); assay: Inhibition of wild-type human partial length ULK1 (M1 to T309 residues) expressed in mammalian expression system assessed as residual activity at 1 uM by Kinomescan method relative to control
# Chain of Serine/threonine-protein kinase ULK1 (Homo sapiens) (O75385 whole entry, the tested form may be a part): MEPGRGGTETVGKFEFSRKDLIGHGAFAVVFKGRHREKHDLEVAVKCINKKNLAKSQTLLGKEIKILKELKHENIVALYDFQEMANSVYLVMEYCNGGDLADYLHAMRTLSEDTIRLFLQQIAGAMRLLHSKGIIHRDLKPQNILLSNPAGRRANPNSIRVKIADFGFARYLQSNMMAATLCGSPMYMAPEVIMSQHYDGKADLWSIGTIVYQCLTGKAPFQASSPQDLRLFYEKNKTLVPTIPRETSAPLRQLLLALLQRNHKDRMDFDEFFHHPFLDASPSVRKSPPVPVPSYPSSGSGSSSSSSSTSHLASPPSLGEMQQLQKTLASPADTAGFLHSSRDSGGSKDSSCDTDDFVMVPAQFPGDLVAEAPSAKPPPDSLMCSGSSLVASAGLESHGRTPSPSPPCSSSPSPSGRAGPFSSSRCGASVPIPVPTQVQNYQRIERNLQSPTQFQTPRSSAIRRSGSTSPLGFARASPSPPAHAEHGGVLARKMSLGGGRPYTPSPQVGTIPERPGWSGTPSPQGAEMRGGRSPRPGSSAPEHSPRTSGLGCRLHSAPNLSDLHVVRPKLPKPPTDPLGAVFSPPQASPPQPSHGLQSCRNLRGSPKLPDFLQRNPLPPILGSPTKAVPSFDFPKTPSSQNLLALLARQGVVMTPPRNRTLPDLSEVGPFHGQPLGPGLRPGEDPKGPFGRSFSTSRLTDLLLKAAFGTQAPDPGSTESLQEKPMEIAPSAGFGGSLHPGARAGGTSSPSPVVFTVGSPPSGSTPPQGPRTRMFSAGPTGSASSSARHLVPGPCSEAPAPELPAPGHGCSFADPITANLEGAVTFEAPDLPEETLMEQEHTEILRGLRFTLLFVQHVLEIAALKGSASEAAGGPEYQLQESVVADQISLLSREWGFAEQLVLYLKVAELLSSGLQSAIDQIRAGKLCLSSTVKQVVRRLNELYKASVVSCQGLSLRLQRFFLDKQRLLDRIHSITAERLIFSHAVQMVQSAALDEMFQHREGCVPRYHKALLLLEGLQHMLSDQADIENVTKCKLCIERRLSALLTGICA
# [10] = biological target: Bone morphogenetic protein receptor type-2 (Homo sapiens) (UniProt Q13873); assay: Inhibition of wild-type human partial length BMPR2 (R179 to Q526 residues) expressed in mammalian expression system assessed as residual activity at 1 uM by Kinomescan method relative to control
# Chain of Bone morphogenetic protein receptor type-2 (Homo sapiens) (Q13873 whole entry, the tested form may be a part): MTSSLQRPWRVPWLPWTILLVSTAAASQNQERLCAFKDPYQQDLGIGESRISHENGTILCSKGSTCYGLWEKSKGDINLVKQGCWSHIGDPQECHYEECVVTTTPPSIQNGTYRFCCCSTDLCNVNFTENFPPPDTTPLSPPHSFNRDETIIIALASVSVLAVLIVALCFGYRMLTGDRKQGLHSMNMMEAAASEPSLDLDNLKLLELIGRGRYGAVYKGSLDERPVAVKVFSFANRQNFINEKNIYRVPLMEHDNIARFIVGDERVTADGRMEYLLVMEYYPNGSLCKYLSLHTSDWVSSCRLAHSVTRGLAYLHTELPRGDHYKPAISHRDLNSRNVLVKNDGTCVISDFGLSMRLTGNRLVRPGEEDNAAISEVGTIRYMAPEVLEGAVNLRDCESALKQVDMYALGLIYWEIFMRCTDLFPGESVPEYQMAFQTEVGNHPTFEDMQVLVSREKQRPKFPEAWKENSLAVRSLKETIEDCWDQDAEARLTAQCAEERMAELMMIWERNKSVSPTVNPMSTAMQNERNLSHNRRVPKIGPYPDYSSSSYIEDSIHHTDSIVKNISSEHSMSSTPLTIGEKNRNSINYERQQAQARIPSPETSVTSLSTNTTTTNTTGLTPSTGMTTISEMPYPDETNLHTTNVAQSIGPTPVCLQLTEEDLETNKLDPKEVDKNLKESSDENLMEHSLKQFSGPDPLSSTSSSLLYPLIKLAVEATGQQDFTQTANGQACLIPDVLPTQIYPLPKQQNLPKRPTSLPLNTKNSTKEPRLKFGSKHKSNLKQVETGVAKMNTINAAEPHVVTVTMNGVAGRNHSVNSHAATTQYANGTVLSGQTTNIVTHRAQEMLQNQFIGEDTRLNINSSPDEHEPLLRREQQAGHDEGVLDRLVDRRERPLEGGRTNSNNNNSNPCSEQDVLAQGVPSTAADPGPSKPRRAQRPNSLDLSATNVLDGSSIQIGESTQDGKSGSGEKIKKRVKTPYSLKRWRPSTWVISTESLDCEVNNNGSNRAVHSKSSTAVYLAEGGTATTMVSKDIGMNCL
# BT-474 = assay: Cytotoxicity against human BT474 cells after 24 hrs by MTT assay; type: functional, cell-based
# [11] = biological target: Receptor-type tyrosine-protein kinase FLT3 (Homo sapiens) (UniProt P36888); assay: Inhibition of wild-type human partial length FLT3 (V592 to Y969 residues) expressed in bacterial expression system assessed as residual activity at 1 uM by Kinomescan method relative to control
# [12] = biological target: T1, Serine/threonine-protein kinase PLK1; assay: Inhibition of full length human PLK1 at 20 uM using casein as substrate after 40 mins in presence of [gamma-33P]-ATP by radiometric assay relative to control
# BT-483 [13] = assay: Induction of apoptosis in human BT-483 cells assessed as late apoptotic cells at 5 uM by Annexin V-FITC/propidium iodide staining based flow cytometry (reference value: 0.36%); type: functional
# BT-483 [14] = assay: Induction of apoptosis in human BT-483 cells by Annexin V-FITC/propidium iodide staining based flow cytometry; type: functional, cell-based
# SK-BR-3 = assay: Cytotoxicity against human SKBR3 cells after 24 hrs by MTT assay; type: functional, cell-based
# [15] = biological target: Cyclin-dependent kinase 16 (Homo sapiens) (UniProt Q00536); assay: Inhibition of wild-type human partial length PCTK1 (G160 to A474 residues) expressed in mammalian expression system assessed as residual activity at 1 uM by Kinomescan method relative to control
# Chain of Cyclin-dependent kinase 16 (Homo sapiens) (Q00536 whole entry, the tested form may be a part): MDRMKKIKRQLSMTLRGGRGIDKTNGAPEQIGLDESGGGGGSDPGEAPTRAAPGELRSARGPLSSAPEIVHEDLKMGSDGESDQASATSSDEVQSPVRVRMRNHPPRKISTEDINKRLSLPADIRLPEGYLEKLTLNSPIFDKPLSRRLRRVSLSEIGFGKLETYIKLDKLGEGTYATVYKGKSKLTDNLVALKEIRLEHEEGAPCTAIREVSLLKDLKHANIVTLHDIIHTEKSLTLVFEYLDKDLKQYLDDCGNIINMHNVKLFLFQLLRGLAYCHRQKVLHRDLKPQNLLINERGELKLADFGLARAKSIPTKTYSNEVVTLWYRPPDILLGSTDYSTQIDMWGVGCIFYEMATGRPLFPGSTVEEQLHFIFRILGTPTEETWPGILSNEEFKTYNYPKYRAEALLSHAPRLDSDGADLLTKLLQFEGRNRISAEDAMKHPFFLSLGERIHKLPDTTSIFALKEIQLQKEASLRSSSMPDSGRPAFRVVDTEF
# [16] = biological target: Mitogen-activated protein kinase 10 (Homo sapiens) (UniProt P53779); assay: Inhibition of wild-type human partial length JNK3 (V28 to Q422 residues) expressed in mammalian expression system assessed as residual activity at 1 uM by Kinomescan method relative to control
# ZR-75-1 = assay: Cytotoxicity against human ZR-75-1 cells after 24 hrs by MTT assay; type: functional, cell-based
# [17] = biological target: Mitogen-activated protein kinase 9 (Homo sapiens) (UniProt P45984); assay: Inhibition of wild-type human full length JNK2 (M1 to Q382 residues) expressed in mammalian expression system assessed as residual activity at 1 uM by Kinomescan method relative to control
# Chain of Mitogen-activated protein kinase 9 (Homo sapiens) (P45984 whole entry, looked up, the tested form may be a part): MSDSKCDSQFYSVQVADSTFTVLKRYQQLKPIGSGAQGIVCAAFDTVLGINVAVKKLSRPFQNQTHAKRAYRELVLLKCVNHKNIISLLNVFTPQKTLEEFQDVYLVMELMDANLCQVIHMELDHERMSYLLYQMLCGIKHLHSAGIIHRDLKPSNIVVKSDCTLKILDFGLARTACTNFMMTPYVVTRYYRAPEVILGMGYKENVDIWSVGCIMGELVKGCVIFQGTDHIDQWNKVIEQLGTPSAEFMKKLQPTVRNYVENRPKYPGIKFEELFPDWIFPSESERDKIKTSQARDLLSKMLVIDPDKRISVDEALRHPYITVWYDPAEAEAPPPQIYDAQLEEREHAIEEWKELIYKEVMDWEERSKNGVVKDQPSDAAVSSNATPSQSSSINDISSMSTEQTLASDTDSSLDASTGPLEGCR
# [18] = test system: Serine/threonine-protein kinase B-raf (Homo sapiens), P15056 [V600E]; assay: Inhibition of human partial length BRAF V600E mutant (S429 to E741 residues) expressed in mammalian expression system assessed as residual activity at 1 uM by Kinomescan method relative to control
# [19] = biological target: MAP/microtubule affinity-regulating kinase 3 (Homo sapiens) (UniProt P27448); assay: Inhibition of wild-type human full length MARK3 (M1 to L729 residues) expressed in bacterial expression system assessed as residual activity at 1 uM by Kinomescan method relative to control
# MDA-MB-468 = assay: Cytotoxicity against human MDA-MB-468 cells after 24 hrs by MTT assay; type: functional, cell-based
# [20] = biological target: Inhibitor of nuclear factor kappa-B kinase subunit beta (Homo sapiens) (UniProt O14920); assay: Inhibition of wild-type human full length IKK-beta (M1 to S756 residues) expressed in mammalian expression system assessed as residual activity at 1 uM by Kinomescan method relative to control
# [21] = biological target: Proto-oncogene tyrosine-protein kinase receptor Ret (Homo sapiens) (UniProt P07949); assay: Inhibition of wild-type human partial length RET (E713 to D1014 residues) expressed in bacterial expression system assessed as residual activity at 1 uM by Kinomescan method relative to control
# [22] = biological target: MAP kinase-activated protein kinase 2 (Homo sapiens) (UniProt P49137); assay: Inhibition of wild-type human partial length MAPKAPK2 (V48 to D345 residues) expressed in bacterial expression system assessed as residual activity at 1 uM by Kinomescan method relative to control
# BT-483 [23] = assay: Induction of apoptosis in human BT-483 cells assessed as necrotic cells at 5 uM by Annexin V-FITC/propidium iodide staining based flow cytometry (reference value: 0.18%); type: functional
# [24] = biological target: Mitogen-activated protein kinase kinase kinase 9 (Homo sapiens) (UniProt P80192); assay: Inhibition of wild-type human partial length MLK1 (V88 to W426 residues) expressed in bacterial expression system assessed as residual activity at 1 uM by Kinomescan method relative to control
# BT-483 [25] = assay: Upregulation of cytochrome-c protein expression in human BT-483 cells at 5 to 10 uM by Western blot analysis; type: functional, cell-based
structure (smiles),measurement,setting,value
CCNc1cc(-c2ccc(NC(=O)Nc3cccc(Cl)c3)cc2C(F)(F)F)ccn1,Activity,[1],93%
same,Activity,[2],92%
same,Activity,[3],84%
same,Activity,MDA-MB-231,Active
same,inhibition,[4],Active
same,Activity,[5],99%
same,Activity,[6],93%
same,Activity,[7],81%
same,Activity,[8],76%
same,Activity,[9],62%
same,Activity,[10],94%
same,Activity,BT-474,Active
same,Activity,[11],100%
same,inhibition,[12],94.9%
same,Activity,BT-483 [13],6.67%
same,Activity,BT-483 [14],Dose-dependent effect
same,Activity,SK-BR-3,Active
same,Activity,[15],66%
same,Activity,[16],64%
same,Activity,ZR-75-1,Active
same,Activity,[17],93%
same,Activity,[18],88%
same,Activity,[19],90%
same,Activity,MDA-MB-468,Active
same,Activity,[20],92%
same,Activity,[21],64%
same,Activity,[22],95%
same,Activity,BT-483 [23],0.45%
same,Activity,[24],67%
same,Activity,BT-483 [25],Active
